Test results published in patent publication US20140295012A1, “LATENT HUMAN IMMUNODEFICIENCY VIRUS REACTIVATION” (priority 2011, published 2014).
Read-outs that look alike come from different tables or passages of the source. Where a SMILES comes first, the peptide text is derived from it. The star is where a group is joined. Cbz = O=C(OCc1ccccc1)*

Key:
Format in all cases: cell-based
[1] = tested on: latently HIV-1 infected CA5 T cells; settings: for priming effect on HIV-1 reactivation by sub-optimal dose of HRF: CA5 cells pretreated with increasing concentrations; for effect of higher concentrations on HIV-1 reactivation triggered by HRF or TNF-α: correlated with high levels of cytotoxicity
Procedure: (§1) Infection levels in the cell cultures were monitored by flow cytometric analysis of EGFP expression. Flow cytometric analysis was performed on a GUAVA EasyCyte (Millipore; Billerica, Mass.), or a LSRII (Becton & Dickinson; Franklin Lakes, N.J.).
Bacterial growth. Bacteria from various sources were isolated on TSA II agar plates containing 5% sheep blood. Bacterial isolates were then grown in RPMI 1640 medium supplemented with 10% FBS. After two days of incubation at 37° C. bacteria were pelleted and resuspended in RPMI medium to an optical density (OD600) of 8, aliquoted and frozen at −80° C. Unless otherwise indicated, Massilia timonae was grown in RPMI 1640 medium supplemented with 10% FBS. Typically, medium was inoculated with Massilia timonae from frozen stocks to an OD600 of 0.01. After 48 hours at 37° C., the culture was centrifuged at 3200 g to separate bacteria from the culture medium. Bacteria were resuspended in fresh medium to an OD600 of 8 and frozen to be used as references and stock cultures. The supernatant was then centrifuged at 10,000 g for 20 minutes and sterilized by passage through a 0.2 μm PVDF filter with low protein binding ability. HRF activity was determined by its ability to reactivate latent HIV-1 infection in CA5 cells. Only supernatants of which 6 μl reactivated infection in at least 60% of CA5 cells were used to study HRF properties.
Flow cytometry. Infection levels in the cell cultures were monitored by flow cytometric (FCM) analysis of GFP expression. FCM analysis was performed on a GUAVA EasyCyte (GUAVA Technologies, Inc.; Millipore; Billerica, Mass.) and a BD FACSCalibur or a LSRII (Becton & Dickinson; Franklin Lakes, N.J.). Cell sorting experiments were performed using a FACSAria™ Flow Cytometer (Becton&Dickinson). Data analysis was performed using either CellQuest (Becton&Dickinson) or GUAVA Express (GUAVA Technologies, Inc.).
To identify the optimal concentration of dactinomycin, CA5 T cells were pretreated with increasing concentrations of dactinomycin (0.0001 and 1 μg/ml), and then left untreated or stimulated with a sub-optimal concentration of HRF or TNF-α. Representative results for stimulation with HRF are depicted in FIG. 3. The chosen HRF concentration has only minimal HIV-1 reactivating effect by itself (15% reactivation over background). Twenty four hours after activator addition, levels of HIV-1 reactivation were determined as the percentage of GFP-positive cells using flow cytometric analysis, which allowed for the simultaneous determination of cell viability. […] Optimal pretreatment time was 18 hours. Maximum reactivation effects were seen 48 hours after stimulation.

[2] = tested on: latently HIV-1 infected CA5 T cells
[3] = tested on: latently HIV-1 infected J89GFP T cells; assay: HIV-1 reactivation / priming in latently HIV-1 infected J89GFP T cells (GFP, flow cytometry, HTS); settings: 10 ng/ml PMA; three J89GFP populations
Procedure: Flow cytometry. Infection levels in the cell cultures were monitored by flow cytometric (FCM) analysis of GFP expression. […] Cell sorting experiments were performed using a FACSAria™ Flow Cytometer (Becton&Dickinson). Data analysis was performed using either CellQuest (Becton&Dickinson) or GUAVA Express (GUAVA Technologies, Inc.).

HIV-1 LTR = assay: Tat-independent activation of integrated LTR-GFP construct in NOMI reporter T cells; settings: 24 hours
Procedure: (§2) FIGS. 6A-6C show HRF triggers suboptimal functional induction of NF-κB dependent gene expression. […] The HIV-1 reactivating kinetics were determined by stimulating CA5 T cells with optimal concentrations of HRF, phorbol 12-myristate 13-acetate (PMA) and tumor necrosis factor-α (TNF-α) and analyzing HIV-1 reactivation as a function of EGFP-expression over a period of 48 hours. Data for all agents are depicted as the percentage of EGFP-positive cells in the total cell population. […] To test the ability of HRF to mediate Tat-independent activation of the HIV-1 LTR, NOMI cells (HIV-1 reporter cell line with an integrated LTR-EGFP construct) were stimulated with increasing concentrations of PMA (0.01-10 ng/ml), TNF-α (0.003-30 μg/ml) and HRF supernatant (0.3-100 μl). The level of LTR-induction was then measured as EGFP-expression detectable after 24 hours as determined by flow cytometric analysis. Arrows indicate the concentrations at which the respective stimulus would have triggered full HIV-1 reactivation in the latently HIV-1 infected CA5 T cell line. […] 293T cells were transfected with several NF-κB dependent promoter constructs and then stimulated with either TNF-α (10 μg/ml) or HRF (25 μl). Promoter induction was measured as total EGFP expression. (NF-κB:pNF-κB-d2EGFP; LTR:HIV-1 LTR-GFP; IL-8:pIL-8 GFP; TNF:human TNF-GFP; MSCV:murine stem cell virus LTR driven GFP; no NF-κB responsive elements).
As the NF-κB pathway has been recognized as vital to HIV-1 activation, the ability of HRF to trigger NF-κB activation was investigated. It was initially determined that HRF had the ability to stimulate Tat independent activation of an integrated LTR-GFP construct in NOMI reporter T cells.

[4] = tested on: chronically actively infected T cell lines (JNLG#35 and JNLG#44); assay: Active HIV-1 transcription in chronically actively infected T cell lines JNLG#35 and JNLG#44 (GFP MCF); settings: 48 hours
Procedure: Changes in HIV-1 transcription levels were determined after 48 hours by measuring GFP mean channel fluorescence intensity (GFP MCF). GFP MCF was plotted over the drug concentration for dactinomycin (FIG. 12A), the DNA intercalators daunorubicin (DM) (FIG. 12B) and rebeccamycin (RM) (FIG. 12C), as well as the transcription inhibitors ICRF-193 (FIG. 12D), DRB (FIG. 12E) and α-amanitin (FIG. 12F). The size of symbols indicates the respective cell viability in the sample (size range adjusted to 5-95%).
For this purpose, each of the compounds was titrated over a relevant range of concentrations on two chronically actively infected T cell lines (JNLG#35 and JNLG#44). These clonal cell lines are infected with a GFP-reporter virus. Forty eight hours after addition of the compounds, the effect of each compound on HIV-1 transcription was determined by flow cytometric analysis quantifying GFP mean channel fluorescence intensity (MCF).

[5] = tested on: NF-κB dependent promoters in 293T cells; assay: NF-κB dependent promoter constructs transfected into 293T cells (EGFP expression)
Procedure: as §2
The utilized EGFP reporter virus HIV-1 NLENG1-IRES has been described elsewhere (Kutsch et al., J. Virol. 76:8776-86 (2002); Levy et al., Proc. Natl. Acad. Sci. USA 101:4204-9 (2004)). The reporter plasmid pNF-κB-d2EGFP was purchased from Clontech (Mountain View, Calif.). The LTR-GFP construct and the IL-8 reporter construct have been described earlier (Choi et al., Mol. Cell. Biol. 22:724-36 (2002)). The TNF-promoter construct was generated by cloning the human TNF-α promoter element defined by primer pair 5′-BglII; 5′-[…] […]-3′ (SEQ ID NO:2) and 3′-AgeI; 5′-[…] […]-3′ (SEQ ID NO:3) into pd2EGFP (Clontech). MSCV-GFP was generated by cloning the EGFP-gene into retroviral pMSCV-puro vector (Clontech).

[6] = tested on: latently HIV-1 infected reporter T cell lines; settings: four latently infected reporter T cell lines; culture supernatant
Procedure: FIGS. 1A and 1B show culture supernatants from Massilia timonae reactivate latent HIV-1 infection. […] Untreated control cells and HRF-treated cells were subjected to flow cytometric analysis to determine enhanced green fluorescent protein (EGFP) expression as a direct and quantitative marker of HIV-1 expression 24 hours post stimulation. FSC/SSC dot plots are represented to evaluate cell viability as a function of changes in the FSC (cell size)-SSC (granularity) phenotype of the cells. FIG. 1B is a histogram showing the reproducibility of the observed HIV-1 reactivation. Three independent preparations of HRF (batches HRF1-3) on four different latently infected T cell lines (5F3, 8E12, CA5 and 12D4) were tested. The percentage of EGFP positive cells following stimulation is depicted in the histogram. Cell culture supernatants of Pseudomonas aeruginosa cultures, grown under similar conditions, were used as specificity controls.
as §1

[7] = tested on: latently HIV-1 infected monocytic THP89GFP cells; assay: HIV-1 reactivation in latently infected monocytic THP89GFP cells

CC[C@H](C)[C@@H]1NC(=O)CNC(=O)[C@@H]2Cc3c([nH]c4cc(O)ccc34)[S+]([O-])C[C@@H](NC(=O)CNC1=O)C(=O)N[C@@H](CC(N)=O)C(=O)N1C[C@H](O)C[C@H]1C(=O)N[C@@H]([C@@H](C)[C@@H](O)CO)C(=O)N2 (stereo in doubt) [α-amanitin]
priming effect on HIV-1 reactivation by sub-optimal dose of HRF [1]: None of the inhibitors exerted a priming effect
priming effect on HIV-1 reactivation by sub-optimal dose of HRF ([1]; listed as α-aminitin): did not exhibit any priming effect
effect of higher concentrations on HIV-1 reactivation triggered by HRF or TNF-α [1]: inhibit HIV-1 reactivation

OC[C@H]1O[C@@H](n2cnc3cc(Cl)c(Cl)cc32)[C@H](O)[C@@H]1O [DRB, 5,6 dichloro-beta-D-ribofuranosylbenzimidazole]
effect of higher concentrations on HIV-1 reactivation triggered by HRF or TNF-α [1]: inhibit HIV-1 reactivation

CC(=O)NCCCCCCNC(C)=O [HMBA, Hexamethylene bisacetamide]
HIV-1 reactivation (cells) ([2]; 3 mM): 15%
HIV-1 reactivation (cells) ([2]; 9 mM): 35%
compound toxicity ([2]; 9 mM): onset of compound toxicity
HIV-1 reactivation levels ([2]; HMBA alone, overall): < 40%
reactivation ([2]; combination of HMBA and TNF-α): 81%
reactivation ([2]; optimal dose of HMBA alone): 27%
priming for full reactivation by sub-optimal TNF-α ([2]; sub-toxic concentrations): relatively potent at priming latent HIV-1 infection
optimal concentration as HIV-1 priming agent prior to onset of drug mediated toxicities [1]: 3 to 10 mM

CC(C)C[C@@H](C=O)NC(=O)[C@H](CC(C)C)NC(=O)[C@H](CC(C)C)NC(=O)OCc1ccccc1 [MG132] (Cbz-Leu-Leu-Leu-aldehyde)
priming effect on HIV-1 reactivation by sub-optimal dose of HRF [1]: did not exhibit any priming effect

CCCCCCCCCCCCCC(=O)O[C@@H]1[C@@H](C)[C@@]2(O)[C@@H](C=C(CO)C[C@]3(O)C(=O)C(C)=C[C@@H]23)[C@@H]2C(C)(C)[C@]12OC(C)=O [PMA, phorbol 12-myristate 13-acetate]
Maximum achievable HIV-1 reactivation levels [3]: 90±3%
Tat-independent activation of integrated LTR-GFP construct (GFP expression) (HIV-1 LTR): stimulated Tat-independent activation

C=C(c1ccc(C(=O)O)cc1)c1cc2c(cc1C)C(C)(C)CCC2(C)C [bexarotene]
effect with bryostatin on latent HIV-1 infection ([2]; bexarotene overnight pretreatment, CA5 T cells): synergistic effect
priming of latent HIV-1 infection for reactivation by a second stimulus ([2]; pretreatment 2 hours or overnight): primed latent HIV-1 infection for reactivation by a second stimulus in a synergistic manner

CC[C@@]1(O)C(=O)OCc2c1cc1n(c2=O)Cc2cc3ccccc3nc2-1 [camptothecin]
priming effect on HIV-1 reactivation by sub-optimal dose of HRF [1]: None of the inhibitors exerted a priming effect

COc1cccc2c1C(=O)c1c(O)c3c(c(O)c1C2=O)C[C@@](O)(C(C)=O)C[C@@H]3O[C@H]1C[C@H](N)[C@H](O)[C@H](C)O1 [daunorubicin]
priming effect on HIV-1 reactivation by sub-optimal dose of HRF [1]: not reproduced
priming effect on HIV-1 reactivation by sub-optimal dose of HRF ([1]; listed as Dauno): did not exhibit any priming effect
effect on active HIV-1 infection / transcription (GFP MCF) [4]: boosted active HIV-1 transcription

O=C1[O][Pt]2([NH][C@@H]3CCCC[C@H]3[NH]2)[O]C1=O [oxaliplatin]
priming effect on HIV-1 reactivation by sub-optimal dose of HRF [1]: not reproduced

CC(=O)O[C@@]12C[C@@H](C)[C@@]3(O)[C@@H](C=C(CO)C[C@]4(O)C(=O)C(C)=C[C@@H]34)[C@@H]1C2(C)C [prostratin]
interaction with bexarotene [2]: interact with bexarotene to reactivate latent HIV-1 infection

CO[C@H]1[C@H](O)[C@@H](O)[C@H](n2c3c(Cl)cccc3c3c4c(c5c6cccc(Cl)c6[nH]c5c32)C(=O)NC4=O)O[C@@H]1CO [rebeccamycin]
priming effect on HIV-1 reactivation by sub-optimal dose of HRF [1]: not reproduced
effect on active HIV-1 infection / transcription (GFP MCF) [4]: boosted active HIV-1 transcription

TNF-α
GFP expression driven by NF-κB responsive promoter constructs (IL-8, TNF-α, HIV-1 LTR, three consensus NF-κB sites) [5]: efficiently induced
GFP expression of construct under control of murine stem cell virus LTR (no NF-κB responsive element) [5]: Neither TNF-α nor HRF influenced GFP expression
reactivation ([1]; sub-optimal dose of TNF-α alone): 32%
Tat-independent activation of integrated LTR-GFP construct (GFP expression) (HIV-1 LTR): stimulated Tat-independent activation

lipopolysaccharide
HIV-1 reactivation [6]: only reactivated HIV-1 infection in the latently HIV-1 infected monocytic THP89GFP cells
HIV-1 reactivation [7]: reactivated HIV-1 infection
